Laboratory results reported in patent US12497642B2, “Incorporation of unnatural nucleotides and methods of use in vivo thereof” (THE SCRIPPS RESEARCH INSTITUTE, priority 2017, dated 2025).

What was measured:
[1] = PCR amplification in vitro (SAR named in the discussion); type: biochemical; details: paired with any analog
[2] = test system: semi-synthetic organism (SSO) (strain YZ3); assay: Replication and UBP retention in vivo in the semi-synthetic organism (streptavidin biotin shift, PAGE), Example 1; type: cell-based, Escherichia coli; details: for UBP retention in vivo, in words: dTPT3TP analog paired with dNaMTP, discussion
Protocol: All bacteria were cultured in 100 μL of liquid 2×YT media (casein peptone 16 g/L, yeast extract 10 g/L, NaCl 5 g/L) supplemented with potassium phosphate (50 mM, pH 7) in 96-well microwell plates. When noted, antibiotics were used at the following concentrations: chloramphenicol, 5 μg/mL; ampicillin, 100 μg/mL. Cell growth, indicated as OD600, was measured using a Perkin Elmer EnVision 2103 Multilabel Reader with a 590/20 nm filter. Unless otherwise stated, molecular biology reagents were purchased from New England Biolabs (Ipswich, MA) and were used according to the manufacturer's protocols. As necessary, purification of nucleic acids was accomplished by micro-elution columns (Zymo Research Corp; Irvine, CA). All natural oligonucleotides were purchased from IDT (San Diego, CA), and oligonucleotides containing dNaM were synthesized by Biosearch Technologies (Petaluma, CA) with purification by reverse phase cartridge. Unnatural nucleotide triphosphates were prepared, and confirmed by MALDI-TOF and UV/Vis.
Plasmids containing the dNaM-dTPT3 UBP were prepared and used to transform the semi-synthetic organism (SSO). To create a template for in vivo replication assays, Golden Gate assembly was used to construct a derivative of the pUC19 plasmid in which a single dNaM-dTPT3 UBP was embedded within the TK1 sequence ([…]; […]), a context within which the UBP is well replicated in the SSO. Plasmids were then used to transform the SSO (strain YZ3). Following transformation, the SSO was allowed to recover at 37° C. for 1 h in media containing dNaMTP (125 μM) and dTPT3TP (25 μM). Cells were pelleted by centrifugation, resuspended in fresh media lacking unnatural triphosphates, split into 100-μL aliquots and then used to inoculate cultures containing different pairs of unnatural triphosphates at the specified concentrations. When the cell density reached an OD600 of ˜0.7, cells were pelleted and plasmids were recovered and PCR amplified with d5SICSTP and a biotinylated analog of dNaMTP, and UBP retention was determined by comparing the intensity of the streptavidin shifted and unshifted bands via PAGE.

## O=c1c2cccnc2ccn1C1CC(O)C(COP(=O)(O)OP(=O)(O)OP(=O)(O)O)O1 (stereo not shown) [dNICS]
[1]
  PCR amplification: do not support PCR amplification
[2]; context 1, dNaMTP 125 μM, dTPT3TP analog 125 μM
  UBP retention: significant UBP retention
[2]
  UBP retention in vivo, in words: supports UBP retention reasonably well
[2]; listed as dNICSTP
  UBP retention in vivo, in words: reasonable retention in vivo
